Measured values as given in patent EP0180615B1, “NOVEL ATRIAL NATRIURETIC/VASODILATOR POLYPEPTIDES” (priority 1984, dated 1995).
Positions of bridges follow the written chain, without caps; N, C: chain ends. Residues, ends and D or L forms follow the SMILES beside them.

Assays:
[1] = system: cultured bovine aortic smooth muscle cells; experiment: cyclic GMP accumulation in cultured aortic smooth muscle cells; assay type: cell-based; conditions: dose-response, % of maximal cyclic GMP increase (Figure 11A)
Source text: (§1) Since the agonistic action of ANVP in vascular smooth muscle not only results from binding to specific receptors, but is also associated with increases in cyclic GMP, the effects of ANVPs and analogs on cyclic GMP accumulation were examined using the same cultured cells. […] In Figure 11A & B, the relative activities of ANVP and analogs on cyclic GMP accumulation in aortic smooth muscle and endothelial cells are shown. The data is plotted in a dose-response relationship (log dose vs % of maximal cyclic GMP increases).

[2] = system: cultured bovine aortic endothelial cells; experiment: cyclic GMP accumulation in cultured aortic endothelial cells; assay type: cell-based; conditions: dose-response, % of maximal cyclic GMP increase (Figure 11B)
Source text: as §1

[3] = system: binding sites on vascular smooth muscle cells; experiment: 125I-ANVP binding and displacement on cultured vascular wall cells; design: species or system bovine; conditions: unlabelled competitor; vascular smooth muscle cells (Table III)
Experimental: Therefore, cells of vascular wall origin, e.g. bovine aortic smooth muscle and endothelial cells, were used to determine binding of ANVP compounds to specific receptors and associated cyclic GMP increases were measured.
Binding assays were performed as follows: ANVPs were labelled with ^1251 according to the procedure of Schenk, et al., J. Biol. Chem., 259:14941-14951 (1984). This procedure utilizes glucose oxidase and lactoperoxidase mediated oxidations to transfer ^1251 to the tyrosine on the ANVP molecule. ^1251-ANVP was then added to 10 mm confluent cultures of vascular wall cells and incubated at 37 °C.
Thus, the displacement of ^1251-ANVP binding by ANVPs and analogs as a function of concentration is a reflection of their potency to bind to the vascular wall and alter the contractile state of the vessel.

isolated rat kidney = experiment: isolated perfused rat kidney
Experimental: The activity of rANVP(126-149) was measured in the isolated rat kidney. Functioning isolated rat kidneys were perfused in a closed-circuit system, as described in Camargo, M.J.F. et al. Am.J.Physiol., 246:F447-F456 (1984). After control clearance periods, 0.1 to 1.0 µg of the compound was added to the perfusate. The effects on multiple parameters were noted. These peak values are expressed in Table I as the experimental data. It is clear that rANVP(126-149) caused urine flow rate, urinary sodium excretion, filtration fraction and glomerular filtration rate to increase.
Isolated rat kidneys were treated as described in Table I. Control periods for each compound are denoted by C and experimental periods following the addition of compounds are denoted by E. V-urine flow rate UNaV-urinary sodium excretion rate, GFR-glomerular filtration rate. Data represent the mean of 3-8 experiments.
Samples of the above expressed material were also tested for natriuretic and diuretic activity using the isolated perfused rat kidney model as described by Camargo, M. et al., Am. J. Physiol. 246:F447-F456-(1984). As shown in Table VIII material synthesized and secreted by yeast cultures containing YEp-a-NF-5 and purified as described above through the SP-Sephadex step increased urinary Na^+ excretion approximately 3-fold and urinary volume 2-fold as examined during repeated test periods of 10 minutes each. […] No significant increase occurred in urinary Na^+ excretion, urinary volume, glomerular filtration or renal resistance when the same experiment was performed on material synthesized and secreted by yeast cultures containing the reverse orientation control plasmid YEp-a-NF-7 and purified through SP-Sephadex@.

intact rat = experiment: natriuresis after bolus injection in the intact anesthetized rat; assay type: in vivo; conditions: Inactin anesthetized rats on constant saline infusion
Experimental: Synthetic ANVP compounds rANVP(126-149), rANVP(126-150) and hANVP(127-151) were also found to be natriuretic in the intact rat. These compounds were administered as a bolus injection to Inactin anesthetized rats (100 mg/kg, average weight 399 g) which were maintained on a constant infusion of normal saline at 2.2 ml/hr. […] Data are expressed as mean ± SE.

anesthetized dogs = experiment: renal and hemodynamic effects of constant infusion in anesthetized dogs; assay type: in vivo; conditions: 1 µg/kg bolus, followed by 0.1 µg/kg/min for 1 hour
Experimental: Renal and hemodynamic effects have also been measured in anesthetized dogs receiving a constant infusion of the compound rANVP(126-149) (1 µg/kg bolus, followed by 0.1 µg/kg/min for 1 hour). Immediate effects were noted on blood pressure, GFR and urine flow rate and electrolyte excretion which were sustained throughout the infusion. The "experimental" data presented for these parameters in Table IV are the average values obtained during the infusion. […] All these parameters returned to control (i.e. pre-infusion) levels during the recovery period (i.e. following termination of the infusion).
(§2) Thus, ANVPs are able to block the effects of the renin-angiotensin system at several levels: (1) they antagonize the direct actions of angiotensin on its target organs (blood vessels and the adrenal); and (2) inhibit renin secretion, which leads to a reduced rate of angiotensin formation in the blood.

isolated adrenal cells = experiment: angiotensin-stimulated aldosterone production by isolated adrenal cells; assay type: cell-based
Source text: as §2

[4] = 0.1 to 1.0 µg added to the perfusate after control clearance periods, peak values
[5] = 0.1 to 1.0 µg added to the perfusate, perfused in the absence of vasoconstrictors

CC[C@H](C)[C@@H]1NC(=O)[C@H](CCCNC(=N)N)NC(=O)[C@H](CC(=O)O)NC(=O)[C@H]([C@@H](C)CC)NC(=O)[C@H](CCCNC(=N)N)NC(=O)CNC(=O)[C@@H](C)NC(=O)[C@H](Cc2ccccc2)NC(=O)[C@@H](NC(=O)[C@H](CO)NC(=O)[C@H](CO)NC(=O)[C@@H](N)CCCNC(=N)N)CSSC[C@@H](C(=O)N[C@@H](CC(N)=O)C(=O)N[C@@H](CO)C(=O)N[C@@H](Cc2ccccc2)C(=O)N[C@@H](CCCNC(=N)N)C(=O)N[C@@H](Cc2ccc(O)cc2)C(=O)O)NC(=O)CNC(=O)[C@H](CC(C)C)NC(=O)CNC(=O)[C@H](CO)NC(=O)[C@H](CCC(N)=O)NC(=O)[C@H](C)NC(=O)CNC1=O [[D-Ala^131]rANVP(126-150)]
rank order of potency, cyclic GMP accumulation [1]: > rANVP(127-150) = other D amino acid substitutions
rank order of potency, cyclic GMP accumulation [2]: > rANVP(127-150) = other D amino acid substitutions

CC[C@H](C)[C@@H]1NC(=O)[C@H](CCCNC(=N)N)NC(=O)[C@H](CC(=O)O)NC(=O)[C@H]([C@@H](C)CC)NC(=O)[C@H](CCCNC(=N)N)NC(=O)CNC(=O)CNC(=O)[C@H](Cc2ccccc2)NC(=O)[C@@H](NC(=O)[C@H](CO)NC(=O)[C@H](CO)NC(=O)[C@@H](N)CCCNC(=N)N)CSSC[C@@H](C(=O)N[C@@H](CC(N)=O)C(=O)N[C@@H](CO)C(=O)N[C@@H](Cc2ccccc2)C(=O)N[C@@H](CCCNC(=N)N)C(=O)N[C@@H](Cc2ccc(O)cc2)C(=O)O)NC(=O)CNC(=O)[C@H](CC(C)C)NC(=O)[C@@H](C)NC(=O)[C@H](CO)NC(=O)[C@H](CCC(N)=O)NC(=O)[C@H](C)NC(=O)CNC1=O [[D-Ala^142]rANVP(126-150), [D-Ala'^42]rANVP(126-150)]
displacement of 125I-ANVP binding [3]: most reactive
rank order of potency, cyclic GMP accumulation [1]: > rANVP(127-150) = other D amino acid substitutions
rank order of potency, cyclic GMP accumulation [2]: > rANVP(127-150) = other D amino acid substitutions

angiotensin
displacement of 125I-ANVP binding [3]: not by a variety of hormones

glucagon
displacement of 125I-ANVP binding [3]: not by a variety of hormones

CC[C@H](C)[C@@H]1NC(=O)[C@H](CCCNC(=N)N)NC(=O)[C@H](CC(=O)O)NC(=O)[C@H]([C@@H](C)CC)NC(=O)[C@H](CCCNC(=N)N)NC(=O)CNC(=O)CNC(=O)[C@H](Cc2ccccc2)NC(=O)[C@@H](NC(=O)[C@H](CO)NC(=O)[C@H](CO)NC(=O)[C@@H](N)CCCNC(=N)N)CSSC[C@@H](C(=O)N[C@@H](CC(N)=O)C(=O)N[C@@H](CO)C(=O)N[C@@H](Cc2ccccc2)C(=O)N[C@@H](CCCNC(=N)N)C(=O)O)NC(=O)CNC(=O)[C@H](CC(C)C)NC(=O)CNC(=O)[C@H](CO)NC(=O)[C@H](CCC(N)=O)NC(=O)[C@H](C)NC(=O)CNC1=O [rANVP(126-149), rANVP (126-149)] (H-RSSCFGGRIDRIGAQSGLGCNSFR-OH; disulfide 4-20)
urinary sodium excretion (isolated rat kidney; [4]): increase
urine flow rate (isolated rat kidney; [4]): increase
filtration fraction (isolated rat kidney; [5]): increase
glomerular filtration rate (isolated rat kidney; [5]): increase
rank order of potency, cyclic GMP accumulation [1]: > rANVP(127-150) = other D amino acid substitutions
rank order of potency, cyclic GMP accumulation [2]: > rANVP(127-150) = other D amino acid substitutions
natriuretic in the intact rat (intact rat): natriuretic
GFR rose (anesthetized dogs): 25-35%
Mean arterial pressure (MAP) fell (anesthetized dogs): 10-15%
diuresis and natriuresis (anesthetized dogs): sustained diuresis and natriuresis
plasma aldosterone (PA) (anesthetized dogs): significant decreases
plasma renin activity (PRA) (anesthetized dogs): significant decreases
ability of angiotensin to stimulate aldosterone production (isolated adrenal cells): inhibits

vasopressin
displacement of 125I-ANVP binding [3]: not by a variety of hormones
